pIC50: −log10 of the molar value. Read-outs that look alike come from different tables or passages of the source.
Assays:
in vivo = details: mouse, brain, mice, oral gavage at 20 mg/kg
Method: The sample solutions prepared for the plasma standard curve were used for the brain homogenate standard curve.
The mouse brain homogenate from the saline control was thawed and vortexed for 3 min or until homogenous, sonicated for 1 min. When the foam settled, 50 μL of mouse brain homogenate was transferred into an Eppendorf tube, followed by 50 μL of test compound in 10 mM NH4HCO3, 150 μL of H2O and 500 μL of ice cold precipitation solution with vortexing after every addition. The standards were allowed to stand at 4° C. for 10 mins and then centrifuged at 14,000×g for 8 min. 200 μL of the supernatant was transferred to HPLC vial insert ensuring that no air bubbles were present and the samples stored at 4° C. until analysis.
Dosing: Oral gavage at 20 mg/kg
(§1) Prepare stock compounds for dosing at 4 mg/ml in sterile PBS. Mice were weighed and dosed by oral gavage at 20 mg/kg for each compound. […]
The samples were analysed on an AB Sciex 4000QTrap MS with 2 Shimadzu Nexera LC-30AD Solvent Delivery Units, Shimadzu Nexera SIL-30AC Auto-Sampler, Shimadzu Prominence DGU-20A5 Degasser, Shimadzu Prominence CBM-20A System Controller and Shimadzu Prominence CTO-20A Column Oven. […] The peak areas from the SRM data for carbutamide and test compound were analysed using the AB Sciex's Analyst software using the Quantitation Wizard. […]

[1] = Compound levels in blood plasma of mice after oral gavage (LC-MS/MS); type: in vivo; details: mouse, 2 hour timepoint after oral gavage at 20 mg/Kg
Method: A series of 10-fold dilutions of the 100,000 ng/mL stock solution with 10 mM NH4HCO3 gave concentrations of 10,000, 1,000, 100 and 10 ng/mL. The 100,000 ng/mL stock solution was diluted to 3:7 with 10 mM NH4HCO3 to give a concentration of 30,000 ng/mL and a series of 10-fold dilutions gave concentrations of 3,000, 300, 30 and 3 ng/mL.
20 μL of test compound-containing solution and 160 μL precipitation solution were added to 20 μL of mouse plasma in a low binding Eppendorf tube. The samples were vortexed, allowed to stand at 4° C. for 10 mins and centrifuged at 14,000×g for 8 min. 150 μL of the supernatant was transferred to an HPLC vial insert. The samples were stored at 4° C. until analysis.
Dosing: Oral gavage at 20 mg/kg
as §1
The samples were analysed on an AB Sciex 4000QTrap MS with 2 Shimadzu Nexera LC-30AD Solvent Delivery Units, Shimadzu Nexera SIL-30AC Auto-Sampler, Shimadzu Prominence DGU-20A5 Degasser, Shimadzu Prominence CBM-20A System Controller and Shimadzu Prominence CTO-20A Column Oven. […] The peak areas from the SRM data for carbutamide and test compound were analysed using the AB Sciex's Analyst software using the Quantitation Wizard.

NLRP3 inflammasome [2] = target: T1, NLRP3 inflammasome (Homo sapiens, UniProt Q96P20); test: Inhibition of IL-18 release, NLRP3 inflammasome activation assay in HMDM; type: cell-based; details: class symbols
T1 sequence (Q96P20 whole entry): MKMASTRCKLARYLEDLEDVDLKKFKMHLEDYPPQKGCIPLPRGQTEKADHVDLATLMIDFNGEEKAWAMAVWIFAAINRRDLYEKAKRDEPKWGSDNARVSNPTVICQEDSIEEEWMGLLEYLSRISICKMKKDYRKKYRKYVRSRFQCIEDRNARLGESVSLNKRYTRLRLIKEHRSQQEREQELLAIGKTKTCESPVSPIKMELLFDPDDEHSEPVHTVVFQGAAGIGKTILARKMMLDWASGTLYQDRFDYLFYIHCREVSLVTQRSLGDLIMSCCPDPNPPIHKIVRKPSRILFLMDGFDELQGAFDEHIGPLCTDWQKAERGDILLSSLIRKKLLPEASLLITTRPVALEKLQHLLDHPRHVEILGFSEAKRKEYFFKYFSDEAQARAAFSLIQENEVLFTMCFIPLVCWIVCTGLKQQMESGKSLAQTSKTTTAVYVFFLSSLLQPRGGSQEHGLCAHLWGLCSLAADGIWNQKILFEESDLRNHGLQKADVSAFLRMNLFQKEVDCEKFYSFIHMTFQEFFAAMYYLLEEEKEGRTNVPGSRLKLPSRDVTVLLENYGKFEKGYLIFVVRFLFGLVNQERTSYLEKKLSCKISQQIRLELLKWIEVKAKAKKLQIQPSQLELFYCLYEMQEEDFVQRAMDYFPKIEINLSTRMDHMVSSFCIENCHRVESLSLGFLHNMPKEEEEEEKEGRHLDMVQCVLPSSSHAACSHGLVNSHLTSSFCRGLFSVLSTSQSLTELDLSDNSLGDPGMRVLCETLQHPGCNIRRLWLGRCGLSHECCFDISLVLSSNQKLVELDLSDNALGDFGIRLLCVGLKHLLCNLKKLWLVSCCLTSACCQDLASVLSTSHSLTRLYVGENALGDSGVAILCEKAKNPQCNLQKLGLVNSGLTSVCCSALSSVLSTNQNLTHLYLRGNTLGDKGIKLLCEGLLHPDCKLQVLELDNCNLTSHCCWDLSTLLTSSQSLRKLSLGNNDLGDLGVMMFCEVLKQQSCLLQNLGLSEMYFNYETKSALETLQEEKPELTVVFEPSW
Method: The following assays can be used to determine inhibitory activity of test compounds on the NLRP3 inflammasome using common stimuli such as adenosine triphosphate, nigericin, LeuLeu-OMe or monosodium urate crystals (MSU).
To generate HMDM, human monocytes are isolated from buffy coat blood using Ficoll-Plaque Plus (GE Healthcare) and density centrifugation. CD14^+ cell selection is performed using MACS magnetic beads (Miltenyl Biotec).
HMDM are seeded at 1×10^5/ml. […] Medium is removed and replaced with serum free medium (SFM) containing test compound 30 min prior to NLRP3 stimulation. […] ATP can be sourced from Sigma Aldrich, nigericin and MSU from Invivogen and LeuLeu-Ome from Chem-Impex International.
For ELISA and cell death assays cells are seeded in 96 well plates. Supernatants are removed and analysed using ELISA kits according to the manufacturer's instructions (DuoSet® R&D Systems, ReadySetGo!® eBioscience, BD OptEIA™, or Perkin Elmer AlphaLISA®). Cell death is assessed by measurement of LDH release relative to a 100% cell lysis control using the CytoTox96® non-radioactive cytotoxicity assay (Promega).

NLRP3 inflammasome [3] = target: T1, NLRP3 inflammasome; test: Inhibition of IL-1β release, NLRP3 inflammasome activation assay in HMDM; type: cell-based
In short: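 Primary human monocyte-derived macrophages from CD14+ buffy-coat monocytes, seeded at 1×10^5/ml. Compound added in serum-free medium 30 min before NLRP3 stimulation (ATP, nigericin, LeuLeu-OMe or MSU). Cytokine in supernatants measured by ELISA or AlphaLISA; cell death by LDH release relative to full lysis.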

NLRP3 inflammasome [4] = target: NLRP3 inflammasome (Mus musculus, UniProt Q8R4B8); test: Inhibition of IL-1β release, NLRP3 inflammasome activation assay in BMDM; type: cell-based
Chain of NLRP3 inflammasome (Mus musculus, UniProt Q8R4B8) (Q8R4B8 whole entry): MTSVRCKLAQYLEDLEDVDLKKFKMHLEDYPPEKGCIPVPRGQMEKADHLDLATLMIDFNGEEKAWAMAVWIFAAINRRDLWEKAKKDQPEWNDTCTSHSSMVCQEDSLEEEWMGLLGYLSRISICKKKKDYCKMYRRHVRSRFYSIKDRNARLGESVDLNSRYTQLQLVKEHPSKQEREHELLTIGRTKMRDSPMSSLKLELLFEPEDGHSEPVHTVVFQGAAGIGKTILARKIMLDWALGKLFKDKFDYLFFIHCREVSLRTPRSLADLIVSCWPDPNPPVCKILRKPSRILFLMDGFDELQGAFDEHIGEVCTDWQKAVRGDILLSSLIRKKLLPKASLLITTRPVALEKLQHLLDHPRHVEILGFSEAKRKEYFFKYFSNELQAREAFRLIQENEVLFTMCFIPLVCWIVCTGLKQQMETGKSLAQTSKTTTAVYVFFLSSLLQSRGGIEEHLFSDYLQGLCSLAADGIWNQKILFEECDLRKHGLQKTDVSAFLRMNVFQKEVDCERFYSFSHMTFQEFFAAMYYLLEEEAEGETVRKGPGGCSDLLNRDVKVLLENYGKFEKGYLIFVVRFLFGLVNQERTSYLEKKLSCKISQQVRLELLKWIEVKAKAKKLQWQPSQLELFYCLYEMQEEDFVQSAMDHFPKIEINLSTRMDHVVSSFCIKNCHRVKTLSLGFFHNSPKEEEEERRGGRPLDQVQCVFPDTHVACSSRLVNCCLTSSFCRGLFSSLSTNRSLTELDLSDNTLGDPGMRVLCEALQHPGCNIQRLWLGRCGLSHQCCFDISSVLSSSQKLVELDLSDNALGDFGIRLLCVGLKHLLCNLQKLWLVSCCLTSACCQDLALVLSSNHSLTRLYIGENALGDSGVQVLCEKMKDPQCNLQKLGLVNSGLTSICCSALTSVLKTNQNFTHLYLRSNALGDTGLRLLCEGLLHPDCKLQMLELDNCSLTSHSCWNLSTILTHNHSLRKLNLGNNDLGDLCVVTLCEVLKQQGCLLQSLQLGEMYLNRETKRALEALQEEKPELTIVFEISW
In short: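 C57BL/6 mouse BMDM seeded at 1×10^5/ml were primed with E. coli K12 LPS for 3 h, then given compound in serum-free medium 30 min before NLRP3 stimulation (ATP, nigericin, LeuLeu-OMe or MSU). Released IL-1β in supernatants was measured by ELISA, and cell death by LDH release relative to full lysis.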

[5] = inhibition of IL-1β release, class symbols, read-out: Avg. IL-1β IC50 HMDM
[6] = inhibition of IL-1β release, class symbols, read-out: Avg. IL-1β IC50 Murine BMDM
[7] = commercial compounds (Table 9), read-out: BMDM IC50 vs NLRP3
[8] = commercial compounds (Table 9), read-out: HMDM IC50 vs NLRP3
[9] = inhibition of IL-1β release, numeric bounds, read-out: Avg. IL-1β IC50 Murine BMDM
[10] = inhibition of IL-1β release, numeric bounds, read-out: Avg. IL-1β IC50 HMDM

## CC(C)(O)c1coc(S(=O)(=O)NC(=O)Nc2c3c(cc4c2CCC4)CCC3)c1 [drawing 335]
In vivo
  concentration at 2 h: 184 ng/g
In vivo; read-out: Brain/Plasma Ratio
  Kp at 2 h: 0.0117
[1]
  concentration at 2 h: 17500 ng/mL

## Cc1ccc(S(=O)(=O)NC(=O)Nc2c3c(cc4c2CCC4)CCC3)o1 [N-((1,2,3,5,6,7-hexahydro-s-indacen-4-yl)carbamoyl)-5-methylfuran-2-sulfonamide]
NLRP3 inflammasome [2]
  pIC50: > 7.00
NLRP3 inflammasome [3]; [5]
  pIC50: > 7.00

## CC(C)(C)n1ccc(S(=O)(=O)NC(=O)Nc2c3c(cc4c2CCC4)CCC3)n1 [1-(tert-butyl)-N-((1,2,3,5,6,7-hexahydro-s-indacen-4-yl)carbamoyl)-1H-pyrazole-3-sulfonamide]
NLRP3 inflammasome [2]
  pIC50: > 7.00
NLRP3 inflammasome [3]; [5]
  pIC50: > 7.00

## CC(C)(O)c1cc(S(=O)(=O)NC(=O)Nc2c3c(cc4c2CCC4)CCC3)nn1-c1ccccc1 [N-((1,2,3,5,6,7-hexahydro-s-indacen-4-yl)carbamoyl)-5-(2-hydroxypropan-2-yl)-1-phenyl-1H-pyrazole-3-sulfonamide]
NLRP3 inflammasome [2]
  pIC50: > 7.00
NLRP3 inflammasome [4]; [6]
  pIC50: > 7.00
NLRP3 inflammasome [3]; [5]
  pIC50: > 7.00

## CC(C)n1ccc(S(=O)(=O)NC(=O)Nc2c3c(cc4c2CCC4)CCC3)n1 [drawing 336]
[1]
  concentration at 2 h: 28200 ng/mL

## Cc1ccc(S(=O)(=O)NC(=O)Nc2c3c(cc4c2CCC4)CCC3)s1 [N-((1,2,3,5,6,7-hexahydro-s-indacen-4-yl)carbamoyl)-5-methylthiophene-2-sulfonamide]
NLRP3 inflammasome [2]
  pIC50: > 7.00
NLRP3 inflammasome [3]; [5]
  pIC50: > 7.00

## CC(C)n1ccc(S(=O)(=O)NC(=O)Nc2c(C3CC3)cc(Cl)c3c2CCC3)n1 [N-((7-chloro-5-cyclopropyl-2,3-dihydro-1H-inden-4-yl)carbamoyl)-1-isopropyl-1H-pyrazole-3-sulfonamide]
NLRP3 inflammasome [4]; [6]
  pIC50: > 6.00
NLRP3 inflammasome [3]; [5]
  pIC50: > 6.00

## O=C(Nc1c2c(cc3c1CCC3)CCC2)NS(=O)(=O)c1ccc(CCNc2ccc([N+](=O)[O-])c3nonc23)cc1 [N-((1,2,3,5,6,7-hexahydro-s-indacen-4-yl)carbamoyl)-4-(2-((7-nitrobenzo[c][1,2,5]oxadiazol-4-yl)amino)ethyl)benzenesulfonamide]
NLRP3 inflammasome [4]; [6]
  pIC50: > 6.00
NLRP3 inflammasome [3]; [5]
  pIC50: > 6.00

## Cn1nc(S(=O)(=O)NC(=O)Nc2c3c(cc4c2CCC4)CCC3)cc1C(C)(C)O [N-((1,2,3,5,6,7-hexahydro-s-indacen-4-yl)carbamoyl)-5-(2-hydroxypropan-2-yl)-1-methyl-1H-pyrazole-3-sulfonamide]
NLRP3 inflammasome [2]
  pIC50: > 7.00
NLRP3 inflammasome [4]; [6]
  pIC50: > 7.00
NLRP3 inflammasome [3]; [5]
  pIC50: > 7.00

## CCC1=C(C)CN(C(=O)NCCc2ccc(S(=O)(=O)NC(=O)Nc3c4c(cc5c3CCC5)CCC4)cc2)C1=O [3-Ethyl-N-(4-(N-((1,2,3,5,6,7-hexahydro-s-indacen-4-yl)carbamoyl)sulfamoyl)phenethyl)-4-methyl-2-oxo-2,5-dihydro-1H-pyrrole-1-carboxamide]
NLRP3 inflammasome [4]; [6]
  pIC50: > 6.00
NLRP3 inflammasome [3]; [5]
  pIC50: > 6.00

## O=C(Nc1c2c(cc3c1CCC3)CCC2)NS(=O)(=O)c1cccc(C(F)(F)F)c1 [N-((1,2,3,5,6,7-hexahydro-s-indacen-4-yl)carbamoyl)-3-(trifluoromethyl)benzenesulfonamide]
NLRP3 inflammasome [4]; [6]
  pIC50: > 6.00
NLRP3 inflammasome [3]; [5]
  pIC50: > 7.00

## CC(=O)c1ccc(S(=O)(=O)NC(=O)Nc2c3c(cc4c2CCC4)CCC3)cc1 [4-Acetyl-N-((1,2,3,5,6,7-hexahydro-s-indacen-4-yl)carbamoyl)benzenesulfonamide]
NLRP3 inflammasome [4]; [6]
  pIC50: > 7.00
NLRP3 inflammasome [3]; [5]
  pIC50: > 6.00

## O=C(Nc1c2c(cc3c1CCC3)CCC2)NS(=O)(=O)c1cccs1 [N-((1,2,3,5,6,7-hexahydro-s-indacen-4-yl)carbamoyl)thiophene-2-sulfonamide]
NLRP3 inflammasome [2]
  pIC50: > 7.00
NLRP3 inflammasome [3]; [5]
  pIC50: > 7.00

## CCCCNC(=O)NS(=O)(=O)c1ccc(C)cc1 [Tolbutamide, reference compound]
NLRP3 inflammasome [4]; [7]
  pIC50: < 3.70
NLRP3 inflammasome [3]; [8]
  pIC50: < 3.70

## CC(C)c1cccc(C(C)C)c1NC(=O)NS(=O)(=O)c1cc(C(C)(C)O)n(C)n1 [N-((2,6-diisopropylphenyl)carbamoyl)-5-(2-hydroxypropan-2-yl)-1-methyl-1H-pyrazole-3-sulfonamide]
NLRP3 inflammasome [2]
  pIC50: > 7.00
NLRP3 inflammasome [3]; [5]
  pIC50: > 7.00

## Cc1cc(Cl)cc(C)c1NC(=O)NS(=O)(=O)c1ccn(C(C)C)n1 [N-((4-chloro-2,6-dimethylphenyl)carbamoyl)-1-isopropyl-1H-pyrazole-3-sulfonamide]
NLRP3 inflammasome [4]; [9]
  pIC50: < 5.00
NLRP3 inflammasome [3]; [5]
  pIC50: > 5.00

## CC(C)(O)c1cc(S(=O)(=O)NC(=O)Nc2c3c(cc4c2CCC4)CCC3)nn1Cc1ccccc1 [1-benzyl-N-((1,2,3,5,6,7-hexahydro-s-indacen-4-yl)carbamoyl)-5-(2-hydroxypropan-2-yl)-1H-pyrazole-3-sulfonamide]
NLRP3 inflammasome [2]
  pIC50: > 7.00
NLRP3 inflammasome [3]; [5]
  pIC50: > 7.00

## Nc1ccc(S(=O)(=O)NC(=O)Nc2c3c(cc4c2CCC4)CCC3)cc1 [4-Amino-N-((1,2,3,5,6,7-hexahydro-s-indacen-4-yl)carbamoyl)benzenesulfonamide]
NLRP3 inflammasome [4]; [6]
  pIC50: > 7.00
NLRP3 inflammasome [3]; [5]
  pIC50: > 6.00

## CC(C)(O)c1coc(S(=O)(=O)NC(=O)Nc2c3c(c(Cl)c4c2CCC4)CCC3)c1 [N-((8-chloro-1,2,3,5,6,7-hexahydro-s-indacen-4-yl)carbamoyl)-4-(2-hydroxypropan-2-yl)furan-2-sulfonamide]
NLRP3 inflammasome [4]; [6]
  pIC50: > 7.00
NLRP3 inflammasome [3]; [5]
  pIC50: > 7.00

## CC(C)c1cc(Cl)cc(C(C)C)c1NC(=O)NS(=O)(=O)c1cc2ccccc2s1 [N-((4-chloro-2,6-diisopropylphenyl)carbamoyl)benzo[b]thiophene-2-sulfonamide]
NLRP3 inflammasome [4]; [6]
  pIC50: > 6.00
NLRP3 inflammasome [3]; [5]
  pIC50: > 7.00

## O=C(Nc1c2c(cc3c1CCC3)CCC2)NS(=O)(=O)c1ncn(Cc2ccccc2)n1 [1-benzyl-N-((1,2,3,5,6,7-hexahydro-s-indacen-4-yl)carbamoyl)-1H-1,2,4-triazole-3-sulfonamide]
NLRP3 inflammasome [2]
  pIC50: > 7.00
NLRP3 inflammasome [3]; [5]
  pIC50: > 7.00

## O=C(Nc1ccc2ncccc2c1)NS(=O)(=O)c1cccc(C2(C(F)(F)F)N=N2)c1 [N-(quinolin-6-ylcarbamoyl)-3-(3-(trifluoromethyl)-3H-diazirin-3-yl)benzenesulfonamide]
NLRP3 inflammasome [4]; inhibition of IL-1β release, uM, read-out: Avg. IL-1β IC50 Murine BMDM
  IC50: > 50 µM
NLRP3 inflammasome [3]; inhibition of IL-1β release, uM, read-out: Avg. IL-1β IC50 HMDM
  IC50: > 50 µM

## CCc1cc(Cl)cc(CC)c1NC(=O)NS(=O)(=O)c1ccn(C(C)C)n1 [N-((4-chloro-2,6-diethylphenyl)carbamoyl)-1-isopropyl-1H-pyrazole-3-sulfonamide]
NLRP3 inflammasome [4]; [6]
  pIC50: > 5.00
NLRP3 inflammasome [3]; [5]
  pIC50: > 5.00

## CC(=O)c1ccc(S(=O)(=O)NC(=O)NC2CCCCC2)cc1 [Acetohexamide, reference compound]
NLRP3 inflammasome [4]; [7]
  pIC50: < 3.70
NLRP3 inflammasome [3]; [8]
  pIC50: < 3.70

## Cc1cc(C)nc(NC(=O)NS(=O)(=O)c2cc(C(C)(C)O)co2)n1 [N-((4,6-dimethylpyrimidin-2-yl)carbamoyl)-4-(2-hydroxypropan-2-yl)furan-2-sulfonamide]
NLRP3 inflammasome [4]; [9]
  pIC50: < 5.00
NLRP3 inflammasome [3]; [10]
  pIC50: < 4.30

## Cc1ccc(S(=O)(=O)NC(=O)NN2CC3CCCC3C2)cc1 (stereo not shown) [Gliclazide, reference compound]
NLRP3 inflammasome [4]; [7]
  pIC50: < 3.70
NLRP3 inflammasome [3]; [8]
  pIC50: < 3.70

## O=C(Nc1c2c(cc3c1CCC3)CCC2)NS(=O)(=O)c1cccc(OC(F)(F)F)c1 [N-((1,2,3,5,6,7-hexahydro-s-indacen-4-yl)carbamoyl)-3-(trifluoromethoxy)benzenesulfonamide]
NLRP3 inflammasome [4]; [6]
  pIC50: > 6.00
NLRP3 inflammasome [3]; [5]
  pIC50: > 6.00

## COc1ccc2c(c1)C(=O)N(CCc1ccc(S(N)(=O)=O)cc1)C(=O)C2(C)C [4-(2-(7-methoxy-4,4-dimethyl-1,3-dioxo-3,4-dihydroisoquinolin-2(1H)-yl)ethyl)benzenesulfonamide, reference compound]
NLRP3 inflammasome [4]; [9]
  pIC50: < 5.00
NLRP3 inflammasome [3]; [10]
  pIC50: < 3.70

## O=C(Nc1c2c(cc3c1CCC3)CCC2)NS(=O)(=O)c1ccc2c(c1)CCC2 [N-((1,2,3,5,6,7-hexahydro-s-indacen-4-yl)carbamoyl)-2,3-dihydro-1H-indene-5-sulfonamide]
NLRP3 inflammasome [4]; [6]
  pIC50: > 7.00
NLRP3 inflammasome [3]; [5]
  pIC50: > 5.00

## Nc1ccc(S(=O)(=O)NC(=O)Nc2c3c(cc4c2CCC4)CCC3)cc1 [drawing 365]
NLRP3 inflammasome [4]; select compounds of the first aspect (Table 10), read-out: BMDM IC50 vs NLRP3
  pIC50: 7.85
NLRP3 inflammasome [3]; select compounds of the first aspect (Table 10), read-out: HMDM IC50 vs NLRP3
  pIC50: 6.51

## NS(=O)(=O)c1cccc(S(=O)(=O)NC(=O)Nc2c3c(cc4c2CCC4)CCC3)c1 [N^1-(1,2,3,5,6,7-Hexahydros-indacen-4-ylcarbamoyl)benzene-1,3-disulfonamide]
NLRP3 inflammasome [4]; [6]
  pIC50: > 7.00
NLRP3 inflammasome [3]; [5]
  pIC50: > 7.00

— patent US10538487B2, “Sulfonylureas and related compounds and use of same” (priority 2015, dated 2020)
